Key:
Type in all cases: cell-based
human CXCR3A = human CXCR3A (Homo sapiens (Human), UniProt P49682); experiment: FLIPR assay (calcium flux, CXCL10-induced); conditions: CHO-K1 cells expressing human CXCR3A coupled to Galpha(16); CXCL10 agonist at 20 nM
Experimental: The bioactivity of compounds is tested in a fluorometric imaging plate reader (FLIPR: Molecular Devices) using engineered CHO-K1 cells expressing the human CXCR3A (GenBank: AY242128) coupled to a G protein (Galpha(16)). Cells are plated the day prior to bioassay in F12 medium supplemented with 10% FBS and G418 and hygromycin antibiotics to maintain recombinant selection. At the day of bioassay, cells are washed and dye loaded for one hour with Fluo-4-AM (Invitrogen) in Hanks Balanced Salt Solution (Invitrogen), buffered with 20 mM Hepes at pH 7.4 and sodium bicarbonate (0.038%), containing 5 mM probenecid. This buffer, but lacking the dye and containing probenecid at a concentration of 2.5 mM, is also used for washing steps (wash buffer); or lacking both dye and probenecid but supplemented with 0.1% BSA for compound dilution steps (dilution buffer). Cells are washed free of excess dye and 60 microliter of wash buffer is added. Stock solutions of test compounds are made up at a concentration of 10 mM in DMSO, and serially diluted in dilution buffer to concentrations required for inhibition dose response curves. After a 10 minute incubation period at 37° C., 10 microliters of each compound dilution are transferred from a compound plate to the plate containing the recombinant cells in the FLIPR instrument according to the manufacturer's instructions. Following basal readings, 10 microliter CXCL10 agonist at a concentration of 20 nM (from Peprotech) is added, again using the FLIPR instrument. Changes in fluorescence are monitored before and after addition of the test compounds. Emission peak values above base level after CXCL10 addition are exported after base line subtraction.
(§1) The calculated IC50 values may fluctuate depending on the daily assay performance. Fluctuations of this kind are known to those skilled in the art. In the case where IC50 values have been determined several times for the same compound, mean values are given. Data for the FLIPR assay are shown in Table 1 and for the receptor internalization assay (RIA) in Table 2.

CXCR3 = CXCR3 (Homo sapiens (Human), UniProt P49682); experiment: Receptor internalization assay (RIA) in human whole blood; conditions: final CXCL10 9 nM, CXCR3 surface expression on CD4 positive cells
Sequence of CXCR3 (P49682 whole entry): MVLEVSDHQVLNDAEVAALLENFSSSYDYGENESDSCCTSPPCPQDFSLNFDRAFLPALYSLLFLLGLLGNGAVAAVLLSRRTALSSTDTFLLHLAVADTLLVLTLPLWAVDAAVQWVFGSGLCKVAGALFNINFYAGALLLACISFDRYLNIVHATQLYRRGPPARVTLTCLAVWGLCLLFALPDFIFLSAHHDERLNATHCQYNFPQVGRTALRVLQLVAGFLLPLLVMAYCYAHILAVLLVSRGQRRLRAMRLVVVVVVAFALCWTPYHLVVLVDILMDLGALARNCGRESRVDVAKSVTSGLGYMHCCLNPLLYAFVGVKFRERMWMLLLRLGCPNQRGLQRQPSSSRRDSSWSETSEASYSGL
Experimental: Stock solutions of test compounds are made up at a concentration of 10 mM in DMSO, and serially diluted in PBS containing 0.5% BSA to concentrations required for inhibition dose response curves. Diluted compounds are then mixed with an equal volume of CXCL10 (Peprotech) diluted in PBS. Anticoagulated venous human whole blood is added to the mixture, which is then incubated in a CO2 incubator at 37° C. to allow for ligand mediated receptor internalization (final CXCL10 concentration is 9 nM). After 30 min, the blood is mixed with fluorescently labeled CXCR3 and CD4 specific antibodies (Becton Dickinson) and incubated on ice for 10 minutes. Samples are then mixed with BD FACS Lysing Solution (Becton Dickinson) in order to eliminate red blood cells. After washing the cells with PBS containing 0.5% BSA, the samples are then analyzed in a flow cytometer (FACS Canto II, Becton Dickinson). For data analysis using FACSDiva software (Becton Dickinson), the mean fluorescence corresponding to CXCR3 cell surface expression was determined on CD4 positive cells.
as §1

hERG K channel = hERG K channel (Homo sapiens (Human), UniProt Q12809); experiment: hERG Q-Patch assay; conditions: CHO cells expressing hERG, K+ tail current
Sequence of hERG K channel (Q12809 whole entry): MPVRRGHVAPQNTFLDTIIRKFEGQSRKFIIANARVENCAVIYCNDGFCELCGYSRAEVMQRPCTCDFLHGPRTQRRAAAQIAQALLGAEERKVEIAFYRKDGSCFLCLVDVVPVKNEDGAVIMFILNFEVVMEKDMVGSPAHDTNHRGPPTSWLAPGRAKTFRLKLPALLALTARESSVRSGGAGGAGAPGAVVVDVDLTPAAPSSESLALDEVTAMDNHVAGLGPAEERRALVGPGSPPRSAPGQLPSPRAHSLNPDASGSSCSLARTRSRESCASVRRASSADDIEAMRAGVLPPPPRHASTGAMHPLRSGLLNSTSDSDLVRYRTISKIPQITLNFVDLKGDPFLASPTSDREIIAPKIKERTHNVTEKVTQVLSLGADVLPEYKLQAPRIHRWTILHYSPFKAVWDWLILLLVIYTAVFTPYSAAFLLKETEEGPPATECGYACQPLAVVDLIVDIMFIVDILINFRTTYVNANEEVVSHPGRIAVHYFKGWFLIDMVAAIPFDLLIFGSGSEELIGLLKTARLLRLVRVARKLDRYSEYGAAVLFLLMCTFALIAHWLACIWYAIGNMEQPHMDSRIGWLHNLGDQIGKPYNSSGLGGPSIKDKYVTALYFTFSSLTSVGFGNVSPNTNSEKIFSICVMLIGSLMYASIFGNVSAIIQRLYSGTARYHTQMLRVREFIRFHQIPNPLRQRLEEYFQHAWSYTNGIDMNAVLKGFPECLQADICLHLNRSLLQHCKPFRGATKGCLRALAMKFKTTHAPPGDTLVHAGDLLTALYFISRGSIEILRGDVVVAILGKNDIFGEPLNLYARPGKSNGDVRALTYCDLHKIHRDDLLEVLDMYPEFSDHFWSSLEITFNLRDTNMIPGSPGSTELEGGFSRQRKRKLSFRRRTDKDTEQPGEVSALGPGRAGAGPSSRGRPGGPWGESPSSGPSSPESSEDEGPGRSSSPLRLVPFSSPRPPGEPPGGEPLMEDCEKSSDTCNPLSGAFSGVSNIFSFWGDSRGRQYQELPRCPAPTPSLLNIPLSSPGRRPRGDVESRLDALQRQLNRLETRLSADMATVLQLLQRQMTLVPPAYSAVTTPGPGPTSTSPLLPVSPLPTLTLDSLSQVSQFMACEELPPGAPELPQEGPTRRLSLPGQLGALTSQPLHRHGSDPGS
Experimental: Compounds are evaluated for block of the hERG K channel using CHO cells stably expressing the hERG gene (accession number U04270, bSys, Witterswil, Switzerland) and the QPatch robotic platform (Sophion, Ballerup, Denmark) in single-cell mode at room temperature. Cells are grown in culture flasks at 37° C. in 5% CO2, in culture medium (Ham's F-12 Nutrient Mixture, Invitrogen 21765-029) supplemented with 9% (v/v) fetal calf serum, 0.9% Penicillin/Streptomycin (10,000 U/mL, Invitrogen 15140148), 100 μg/mL Hygromycin B (Invitrogen 10687010). When the cells are ˜80% confluent (every 2-3 days), they are either split for further culture or used for electrophysiology. For further culture, cells are detached with 0.25% Trypsin EDTA solution (Invitrogen 25200-056) and a fraction of the cells (10-30%) is reseeded in culture medium. For electrophysiology, on the experimental day, cells are detached with 0.25% Trypsin EDTA solution and all cells are suspended in suspension medium (293 SFM II, Invitrogen 11686-029) supplemented with 20 mM HEPES and 0.04 mg/mL Trypsin inhibitor. Cells are kept in suspension medium at 32-35° C. in the QPatch robot until use, at which time aliquots are transferred to the extracellular solution (in mM: NaCl 150; KCl 4; CaCl2 1.2; MgCl2 1; HEPES 10; pH 7.4 with NaOH) containing 0.3% v/v DMSO and applied to the test plates. K+ currents are measured with the patch-voltage-clamp technique in the whole-cell configuration with the internal solution (in mM: KCl, 140; NaCl, 10; MgCl2, 1; HEPES, 10; EGTA, 5; pH=7.2 with KOH). Currents are low-pass filtered using the internal Bessel filter of the QPatch robot with a cut-off frequency of 2 kHz and are digitized at 10 kHz. K^+ tail currents are produced from a holding voltage of −80 mV by a 500-ms depolarization to +20 mV followed by a 500-ms repolarization to −40 mV; tail current amplitudes are measured at the end of the repolarization to −40 mV. The pulse pattern is repeated every 10 sec during the experiment, baseline K^+ current is measured after 3 min in extracellular solution, test-solution containing compound is then applied, and K^+ current in presence of compound is measured 3 minutes after application to the cells. The respective test-solution is prepared by (1) dissolving the test-compound in pure DMSO, (2) diluting this DMSO solution in extracellular solution, and (3) adding further DMSO, such that the final test-solution has a concentration of either 300 nM or 3000 nM of the test-compound and contains 0.3% v/v DMSO. Compound effects are quantified as % block by dividing the current in presence of compound by the baseline current; two or three experiments are performed for each compound and the final value represents the mean of the results of each experiment.

Sequence of human CXCR3A (P49682 whole entry): as the sequence (P49682 whole entry) above

IC50 (human CXCR3A) [nM]	IC50 (CXCR3) [nM]	Structure (SMILES)	% block (hERG K channel; concentration 300 nM) [%]	% block (hERG K channel; concentration 3000 nM) [%]
13	950	CCOc1ncc(-c2nc(C(F)(F)F)sc2N2CCN(C(=O)Cn3cnc(COC)n3)[C@H](C)C2)cn1 [Example 4, 1-{(R)-4-[4-(2-Ethoxy-pyrimidin-5-yl)-2-trifluoromethyl-thiazol-5-yl]-2-methyl-piperazin-1-yl}-2-(3-methoxymethyl-[1,2,4]triazol-1-yl)-ethanone]	5	10
2.7	606	COCc1ncn(CC(=O)N2CCN(c3sc(C(F)(F)F)nc3-c3cnc(C(F)(F)F)nc3)C[C@H]2C)n1 [Example 9, 2-(3-Methoxymethyl-[1,2,4]triazol-1-yl)-1-{(R)-2-methyl-4-[2-trifluoromethyl-4-(2-trifluoromethyl-pyrimidin-5-yl)-thiazol-5-yl]-piperazin-1-yl}-ethanone]	2	11
1.8	211	CCOc1ncc(-c2nc(C(F)(F)F)sc2N2CCN(C(=O)Cn3cnc(C)n3)[C@H](C)C2)cn1 [Example 19, 1-{(R)-4-[4-(2-Ethoxy-pyrimidin-5-yl)-2-trifluoromethyl-thiazol-5-yl]-2-methyl-piperazin-1-yl}-2-(3-methyl-[1,2,4]triazol-1-yl)-ethanone]	9	14
0.7	524	CC(C)c1ncn(CC(=O)N2CCN(c3sc(C(F)(F)F)nc3-c3cnc(C4CC4)nc3)C[C@H]2C)n1 [Example 16, 1-{(R)-4-[4-(2-Cyclopropyl-pyrimidin-5-yl)-2-trifluoromethyl-thiazol-5-yl]-2-methyl-piperazin-1-yl}-2-(3-isopropyl-[1,2,4]triazol-1-yl)-ethanone]	1	25
1	552	CCOc1ncc(-c2nc(C(F)(F)F)sc2N2CCN(C(=O)Cn3cnc(C(C)(C)C)n3)[C@H](C)C2)cn1 [Example 3, 2-(3-tert-Butyl-[1,2,4]triazol-1-yl)-1-{(R)-4-[4-(2-ethoxy-pyrimidin-5-yl)-2-trifluoromethyl-thiazol-5-yl]-2-methyl-piperazin-1-yl}-ethanone]	10	20
2	148	CCc1ncn(CC(=O)N2CCN(c3sc(C(F)(F)F)nc3-c3cnc(C(F)(F)F)nc3)C[C@H]2C)n1 [Example 6, 2-(3-Ethyl-[1,2,4]triazol-1-yl)-1-{(R)-2-methyl-4-[2-trifluoromethyl-4-(2-trifluoromethyl-pyrimidin-5-yl)-thiazol-5-yl]-piperazin-1-yl}-ethanone]	5	22
4.6	679	C[C@@H]1CN(c2sc(C(F)(F)F)nc2-c2cnc(C3CC3)nc2)CCN1C(=O)Cn1cnc(C(C)(C)C)n1 [Example 17, 2-(3-tert-Butyl-[1,2,4]triazol-1-yl)-1-{(R)-4-[4-(2-cyclopropyl-pyrimidin-5-yl)-2-trifluoromethyl-thiazol-5-yl]-2-methyl-piperazin-1-yl}-ethanone]	0	23
1.6	235	CCOc1ncc(-c2nc(C(F)(F)F)sc2N2CCN(C(=O)Cn3cnc(CC)n3)[C@H](C)C2)cn1 [Example 2, 1-{(R)-4-[4-(2-Ethoxy-pyrimidin-5-yl)-2-trifluoromethyl-thiazol-5-yl]-2-methyl-piperazin-1-yl}-2-(3-ethyl-[1,2,4]triazol-1-yl)-ethanone]	−2	4
4.4	221	CCCc1ncn(CC(=O)N2CCN(c3sc(C(F)(F)F)nc3-c3cnc(C(F)(F)F)nc3)C[C@H]2C)n1 [Example 11, 1-{(R)-2-Methyl-4-[2-trifluoromethyl-4-(2-trifluoromethyl-pyrimidin-5-yl)-thiazol-5-yl]-piperazin-1-yl}-2-(3-propyl-[1,2,4]triazol-1-yl)-ethanone]	5	30
1.3	174	CC(C)c1ncn(CC(=O)N2CCN(c3sc(C(F)(F)F)nc3-c3cnc(C(F)(F)F)nc3)C[C@H]2C)n1 [Example 7, 2-(3-Isopropyl-[1,2,4]triazol-1-yl)-1-{(R)-2-methyl-4-[2-trifluoromethyl-4-(2-trifluoromethyl-pyrimidin-5-yl)-thiazol-5-yl]-piperazin-1-yl}-ethanone]	5	24
12	1710	C[C@@H]1CN(c2sc(C(F)(F)F)nc2-c2cnc(C(F)(F)F)nc2)CCN1C(=O)Cn1cnc(C(N)=O)n1 [Example 5, 1-(2-{(R)-2-Methyl-4-[2-trifluoromethyl-4-(2-trifluoromethyl-pyrimidin-5-yl)-thiazol-5-yl]-piperazin-1-yl}-2-oxo-ethyl)-1H-[1,2,4]triazole-3-carboxylic acid amide]	1	5
3.1	1390	COCc1ncn(CC(=O)N2CCN(c3sc(C(F)(F)F)nc3-c3cnc(C4CC4)nc3)C[C@H]2C)n1 [Example 18, 1-{(R)-4-[4-(2-Cyclopropyl-pyrimidin-5-yl)-2-trifluoromethyl-thiazol-5-yl]-2-methyl-piperazin-1-yl}-2-(3-methoxymethyl-[1,2,4]triazol-1-yl)-ethanone]	10	22

Structure (SMILES)	IC50 (human CXCR3A) [nM]	IC50 (CXCR3) [nM]	% block (hERG K channel; concentration 300 nM) [%]	% block (hERG K channel; concentration 3000 nM) [%]
CC(C)c1ncn(CC(=O)N2CCN(c3sc(C(F)(F)F)nc3-c3cnc(OC4CCC4)nc3)C[C@H]2C)n1 [Example 14, 1-{(R)-4-[4-(2-Cyclobutoxy-pyrimidin-5-yl)-2-trifluoromethyl-thiazol-5-yl]-2-methyl-piperazin-1-yl}-2-(3-isopropyl-[1,2,4]triazol-1-yl)-ethanone]	1.2	459	4	27

From patent US10047080B2, “(R)-2-methyl-piperazine derivatives as CXCR3 receptor modulators” (Idorsia Pharmaceuticals Ltd., priority 2015, dated 2018)
